Drawing on US9611252B2 (LifeSci Pharmaceuticals, Inc., priority 2013, dated 2017), this text covers EC50 and IC50 for 25 compounds.

The target in experiment [1] is kallikrein (Homo sapiens (Human), UniProt P03952). In words: In vitro cellular assay (contact assay): kallikrein activity in ellagic acid-activated human plasma, substrate Z-FR-2-AMC. Format: biochemical. The method, then:
The ability of the compounds disclosed herein to inhibit cellular kallikrein activity was quantified and the respective EC50 value was determined.
All dilutions were prepared in an assay buffer comprising 50 mM Tris-HCl pH 7.2, 150 mM NaCl, and 0.01% Triton X-100.
The ten solutions of the test compounds, prepared by serial dilution, were further diluted 50-fold in the assay buffer.
Human plasma is thawed on ice and centrifuged for 15 min at 4° C. to remove platelets. A 1 mM stock solution of ellagic acid is diluted to 8 μM and mixed with human plasma, after removing platelets, at a ratio of 1:0.8.
A 22.5 μL volume of the final mixture of human plasma and ellagic acid was added to a 96-well microwell plate and the plate was incubated for 15 min at 37° C.
The CINH inhibitor at various concentrations, prepared by serial dilutions as described above, were added to the inhibitor control wells. […] Each CINH concentration is tested in duplicates.
The test compounds at various concentrations, also prepared by serial dilutions as described above, are added to the test wells. […] Each test compound concentration was tested in duplicates.
In addition to the inhibitor control and test wells, the 96 well assay plate includes positive control wells which contained the mixture of human plasma and ellagic acid without C1NH inhibitor or test compounds, and background wells which contained neither the mixture of human plasma and ellagic acid nor the test compounds. The total volume of liquid in positive control and background wells was brought up to 35 μL, using the assay buffer.
The assay plate containing C1NH inhibitors and test compounds mixed with human plasma and ellagic acid and appropriate controls was incubated at 37° C. for 5 min. […] The reagents were mixed well by shaking the plate gently for 30 sec.
The enzyme reaction was quantified by immediate kinetic reading of the assay plate using excitation/emission wavelengths of 330 nm/440 nm respectively. Fluorescence intensity was recorded for 60 min, using a time interval of 43 sec.
The inhibition activity of the test compounds were evaluated using the IC50 values, calculated according to the dose-response curve of the test compounds, fitted using the “log(inhibitor)-response (variable slope)” equation in GraphPadPrism software (GraphPad Software, Inc.).
The percentage inhibition was calculated using the following equation:
[formula] where, Mean(BG) is the average value of the fluorescence intensity of the background wells and Mean(PC) is the average value of the fluorescence intensity of the positive control wells.
Table 4 provides the EC50 values of various compounds disclosed herein.

Experiment [2] addresses human Plasma Kallikrein (Homo sapiens (Human), UniProt P03952). In words: In vitro enzyme inhibition of human plasma kallikrein (PFR-AMC cleavage). As to conditions: human plasma kallikrein, Pro-Phe-Arg-AMC substrate, 37° C.; read-out: hPK IC50. It is filed as biochemical. In outline:
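Compound pre-incubated with human plasma kallikrein 5 min at 37° C in 50 mM Tris-HCl pH 7.5, 150 mM NaCl, 0.01% Triton X-100. Reaction started with PFR-AMC, cleavage read kinetically at 37° C every 43 s for 1 h.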

Where [3] appears, read: human plasma activated with ellagic acid, Z-FR-2-AMC substrate, 37° C., read-out: Contact Assay EC50.

Each structure is given as a SMILES string. Read-outs that look alike come from different tables or passages of the source.

As usually defined, the EC50 is the concentration that produces a half-maximal response. One may read the IC50 as the concentration that inhibits the measured activity by half.

Chain of human Plasma Kallikrein (P03952 20-638): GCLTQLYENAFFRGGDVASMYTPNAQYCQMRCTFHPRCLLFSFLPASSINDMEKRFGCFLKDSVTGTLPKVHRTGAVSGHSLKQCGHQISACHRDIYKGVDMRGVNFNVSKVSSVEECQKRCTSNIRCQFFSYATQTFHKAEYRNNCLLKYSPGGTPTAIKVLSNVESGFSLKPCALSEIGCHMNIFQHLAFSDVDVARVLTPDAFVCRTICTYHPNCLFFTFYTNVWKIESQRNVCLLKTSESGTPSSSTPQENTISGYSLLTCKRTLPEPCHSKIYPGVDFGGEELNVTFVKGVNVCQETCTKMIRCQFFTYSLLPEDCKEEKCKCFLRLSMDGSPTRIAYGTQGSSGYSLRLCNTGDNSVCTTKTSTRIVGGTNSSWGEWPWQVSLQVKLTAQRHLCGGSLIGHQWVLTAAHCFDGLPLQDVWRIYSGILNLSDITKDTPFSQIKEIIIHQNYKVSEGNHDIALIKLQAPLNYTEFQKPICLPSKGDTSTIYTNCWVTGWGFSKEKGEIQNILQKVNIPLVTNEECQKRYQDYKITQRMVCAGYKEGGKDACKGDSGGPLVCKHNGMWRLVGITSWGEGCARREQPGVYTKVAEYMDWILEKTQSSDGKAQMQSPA
Chain of kallikrein (P03952 20-638): as above

As to `Cc1cnc2c(S(C)(=O)=O)cc(Cc3cc(C(=O)NCc4c(C)cc(N)nc4C)ccn3)cc2c1` [Example 15, N-((6-amino-2,4-dimethylpyridin-3-yl)methyl)-2-((3-methyl-8-(methylsulfonyl)quinolin-6-yl)methyl)isonicotinamide], the EC50 in experiment [1] (setting [3]) is below 100 nM. In experiment [2], the IC50 is below 100 nM.

Regarding `Cc1cnc2c(S(C)(=O)=O)cc(Cc3cc(C(=O)NCc4ccc5c(N)nccc5c4)ccn3)cc2c1` [Example 16, N-((1-aminoisoquinolin-6-yl)methyl)-2-((3-methyl-8-(methylsulfonyl)quinolin-6-yl)methyl)isonicotinamide], the EC50 in experiment [1] (setting [3]) was below 100 nM. For the same compound, the IC50 in experiment [2] is below 100 nM.

Consider `Cc1cnc2c(S(C)(=O)=O)cc(Cc3cc(C(=O)NCc4cc5c(Cl)c[nH]c5cc4F)ccn3)cc2c1` [Example 17, N-((3-chloro-6-fluoro-1H-indol-5-yl)methyl)-2-((3-methyl-8-(methylsulfonyl)quinolin-6-yl)methyl)isonicotinamide], for which the half-maximal effective concentration (EC50) in experiment [1] (setting [3]) was below 100 nM. Besides, the 50% inhibitory concentration (IC50) in experiment [2] was below 100 nM.

With `Cc1cnc2c(S(C)(=O)=O)cc(Cc3cc(C(=O)NCc4cc5cc[nH]c5cc4F)ccn3)cc2c1` [Example 18, N-((6-fluoro-1H-indol-5-yl)methyl)-2-((3-methyl-8-(methylsulfonyl)quinolin-6-yl)methyl)isonicotinamide], the concentration giving a half-maximal response (EC50) in experiment [1] (setting [3]) was 100 to 1000 nM. The IC50 in experiment [2] is below 100 nM.

Turning to `Cc1cnc2c(S(C)(=O)=O)cc(Cc3cc(C(=O)NCc4cnc5[nH]cc(Cl)c5c4)ccn3)cc2c1` [Example 19, N-((3-chloro-1H-pyrrolo[2,3-b]pyridin-5-yl)methyl)-2-((3-methyl-8-(methylsulfonyl)quinolin-6-yl)methyl)isonicotinamide], in experiment [1] (setting [3]), the EC50 is below 100 nM. The IC50 in experiment [2] was below 100 nM.

As to `Cc1cnc2c(S(C)(=O)=O)cc(Cc3cc(C(=O)NCc4n[nH]c5ccc(Cl)cc45)ccn3)cc2c1` [Example 20, N-((5-chloro-1H-indazol-3-yl)methyl)-2-((3-methyl-8-(methylsulfonyl)quinolin-6-yl)methyl)isonicotinamide], the EC50 in experiment [1] (setting [3]) is below 100 nM. The IC50 in experiment [2] was below 100 nM.

For `Cc1cnc2c(S(C)(=O)=O)cc(Cc3cc(C(=O)NCc4ccc5[nH]cc(Cl)c5c4F)ccn3)cc2c1` [Example 21, N-((3-chloro-4-fluoro-1H-indol-5-yl)methyl)-2-((3-methyl-8-(methylsulfonyl)quinolin-6-yl)methyl)isonicotinamide], the EC50 in experiment [1] (setting [3]) was below 100 nM. In addition, in experiment [2], the 50% inhibitory concentration (IC50) is below 100 nM.

As for `Nc1nccc2cc(CNC(=O)c3ccnc(Cc4ccc5ncc(Cl)cc5c4)c3)ccc12` [Example 31, N-((1-aminoisoquinolin-6-yl)methyl)-2-((3-chloroquinolin-6-yl)methyl)isonicotinamide], in experiment [1] (setting [3]), the EC50 is below 100 nM. In addition, the IC50 in experiment [2] was below 100 nM.

For `O=C(NCc1cc2c(Cl)c[nH]c2cc1F)c1ccnc(Cc2ccc3ncc(Cl)cc3c2)c1` [Example 33, N-((3-chloro-6-fluoro-1H-indol-5-yl)methyl)-2-((3-chloroquinolin-6-yl)methyl)isonicotinamide], the EC50 in experiment [1] (setting [3]) is 100 to 1000 nM. Moreover, the IC50 in experiment [2] was below 100 nM.

For the compound `Cc1nc(N)ccc1CNC(=O)c1ccnc(Cc2ccc3ncc(Cl)cc3c2)c1` [Example 34, N-((6-amino-2-methylpyridin-3-yl)methyl)-2-((3-chloroquinolin-6-yl)methyl)isonicotinamide], the EC50 in experiment [1] (setting [3]) was below 100 nM. For the same compound, the IC50 in experiment [2] is below 100 nM.

With `Cc1cc(N)nc(C)c1CNC(=O)c1ccnc(Cc2ccc3ncc(Cl)cc3c2)c1` [Example 35, N-((6-amino-2,4-dimethylpyridin-3-yl)methyl)-2-((3-chloroquinolin-6-yl)methyl)isonicotinamide], the EC50 in experiment [1] (setting [3]) is below 100 nM. Also, the IC50 in experiment [2] is below 100 nM.

For the compound `O=C(NCc1cnc2[nH]cc(Cl)c2c1)c1ccnc(Cc2ccc3ncc(Cl)cc3c2)c1` [Example 38, N-(3-Chloro-1H-pyrrolo[2,3-b]pyridin-5-ylmethyl)-2-(3-chloro-quinolin-6-ylmethyl)-isonicotinamide], in experiment [1] (setting [3]), the EC50 was in the range of 100 to 1000 nM. The IC50 in experiment [2] is below 100 nM.

On to `O=C(NCc1ccc2[nH]cc(Cl)c2c1F)c1ccnc(Cc2ccc3ncc(Cl)cc3c2)c1` [Example 40, N-(3-Chloro-4-fluoro-1H-indol-5-ylmethyl)-2-(3-chloro-quinolin-6-ylmethyl)-isonicotinamide], for which, in experiment [1] (setting [3]), the EC50 was in the range of 100 to 1000 nM. Further, in experiment [2], the IC50 was below 100 nM.

`Cc1nc(N)ccc1CNC(=O)c1ccnc(Cc2cc(C#N)c3ncc(Cl)cc3c2)c1` [Example 56, N-(6-amino-2-methyl-pyridin-3-ylmethyl)-2-(3-chloro-8-cyano-quinolin-6-ylmethyl)-isonicotinamide] displayed an EC50 in experiment [1] of 100 to 1000 nM.

Compound `N#Cc1cc(Cc2cc(C(=O)NCc3ccc4c(N)nccc4c3)ccn2)cc2cc(Cl)cnc12` [Example 57, N-(1-amino-isoquinolin-6-ylmethyl)-2-(3-chloro-8-cyano-quinolin-6-ylmethyl)-isonicotinamide] returned an EC50 in experiment [1] of 100 to 1000 nM. Moreover, in experiment [2], the IC50 is below 100 nM.

As to `NC(=O)c1cc(Cc2cc(C(=O)NCc3cc4c(Cl)c[nH]c4cc3F)ccn2)cc2cc(Cl)cnc12` [Example 59, 3-chloro-6-((4-(((3-chloro-6-fluoro-1H-indol-5-yl)methyl)carbamoyl)pyridin-2-yl)methyl)quinoline-8-carboxamide], the EC50 in experiment [1] (setting [3]) was in the range of 100 to 1000 nM. For the same compound, the half-inhibitory concentration (IC50) in experiment [2] was below 100 nM.

`NC(=O)c1cc(Cc2cc(C(=O)NCc3n[nH]c4ccc(Cl)cc34)ccn2)cc2cc(Cl)cnc12` [Example 60, 3-chloro-6-((4-(((5-chloro-1H-indazol-3-yl)methyl)carbamoyl)pyridin-2-yl)methyl)quinoline-8-carboxamide]: the EC50 in experiment [1] (setting [3]) was 100 to 1000 nM. Moreover, the 50% inhibitory concentration (IC50) in experiment [2] was below 100 nM.

Turning to `NC(=O)c1cc(Cc2cc(C(=O)NCc3cnc4[nH]cc(Cl)c4c3)ccn2)cc2cc(Cl)cnc12` [Example 61, 3-chloro-6-((4-(((3-chloro-1H-pyrrolo[2,3-b]pyridin-5-yl)methyl)carbamoyl)pyridin-2-yl)methyl)quinoline-8-carboxamide], in experiment [1] (setting [3]), the EC50 was in the range of 100 to 1000 nM. Moreover, in experiment [2], the IC50 was below 100 nM.

Regarding `Cc1nc(N)ccc1CNC(=O)c1ccnc(Cc2cc(C(N)=O)c3ncc(Cl)cc3c2)c1` [Example 62, 6-((4-(((6-amino-2-methylpyridin-3-yl)methyl)carbamoyl)pyridin-2-yl)methyl)-3-chloroquinoline-8-carboxamide], in experiment [1] (setting [3]), the EC50 was below 100 nM. Also, the IC50 in experiment [2] is below 100 nM.

As to `N#Cc1ccnc2ccc(Cc3cc(C(=O)NCc4cc5c(Cl)c[nH]c5cc4F)ccn3)cc12` [Example 137, N-((3-chloro-6-fluoro-1H-indol-5-yl)methyl)-2-((4-cyanoquinolin-6-yl)methyl)isonicotinamide], the IC50 in experiment [2] fell in the range of 100 to 1000 nM.

Consider `Cc1cc(N)nc(C)c1CNC(=O)c1ccnc(Cc2ccc3nccc(C#N)c3c2)c1` [Example 138, N-((6-amino-2,4-dimethylpyridin-3-yl)methyl)-2-((4-cyanoquinolin-6-yl)methyl)isonicotinamide], for which, in experiment [2], the IC50 was below 100 nM.

Consider `Nc1nccc2cc(CNC(=O)c3ccnc(Cc4cnc5cc(Cl)ccc5c4)c3)ccc12` [Example 139, N-((1-aminoisoquinolin-6-yl)methyl)-2-((7-chloroquinolin-3-yl)methyl)isonicotinamide], for which the IC50 in experiment [2] was below 100 nM.

Regarding `O=C(NCc1cc2c(Cl)c[nH]c2cc1F)c1ccnc(Cc2cnc3cc(Cl)ccc3c2)c1` [Example 140, N-((3-chloro-6-fluoro-1H-indol-5-yl)methyl)-2-((7-chloroquinolin-3-yl)methyl)isonicotinamide], the half-maximal inhibitory concentration (IC50) in experiment [2] was below 100 nM.

Take `Cc1cc(N)nc(C)c1CNC(=O)c1ccnc(Cc2cnc3cc(Cl)ccc3c2)c1` [Example 141, N-((6-amino-2,4-dimethylpyridin-3-yl)methyl)-2-((7-chloroquinolin-3-yl)methyl)isonicotinamide]: the IC50 in experiment [2] was below 100 nM.

For `NCc1ccc2cc(Cc3cc(C(=O)NCc4ccc5c(N)nccc5c4)ccn3)ccc2n1` [Example 146, N-((1-aminoisoquinolin-6-yl)methyl)-2-((2-(aminomethyl)quinolin-6-yl)methyl)isonicotinamide], the IC50 in experiment [2] was in the range of 100 to 1000 nM.
